As a reminder, the MIC is the lowest concentration that inhibits growth of the organism. As a reminder, the ED50 is the dose that gives a 50% effect, or the effect in half of the subjects. A word on the CC50: it is the concentration giving 50% cytotoxicity.

These results are taken from ChEMBL document CHEMBL4229379, “Synthesis and structure-activity relationship of novel bisindole amidines active against MDR Gram-positive and Gram-negative bacteria” (Eur J Med Chem, 2018).

The test system of data set [1] is Staphylococcus aureus. Put plainly: Antibacterial activity against methicillin-resistant Staphylococcus aureus ATCC 33591 infected in ICR mouse assessed as mouse survival at 3 mg/kg, iv administered at 1 and 5 hrs post infection and measured on day 7 day post last dose (reference value: 0%). The format is functional. Particulars: ATCC 33591, iv.
Data set [2] deals with Escherichia coli. Nature of the data set: Antibacterial activity against extended-spectrum beta-lactamase harboring Escherichia coli 12-15 after 18 hrs by CLSI broth microdilution method. The format is functional. Particulars: 12-15, 18 h. On the technique in general: Broth dilution looks for growth in wells or tubes with falling amounts of substance.
The subject of the next data set is Enterobacter cloacae. Nature of the data set: Antibacterial activity against Enterobacter cloacae ATCC 43560 after 18 hrs by CLSI broth microdilution method. The data set is classed as functional. As to conditions: ATCC 43560, 18 h.
For data set [3], the system named is Klebsiella pneumoniae. Put plainly: Antibacterial activity against carbapenem-resistant Klebsiella pneumoniae 12-11 after 18 hrs by CLSI broth microdilution method. The data set is classed as functional. Particulars: 12-11, 18 h.
Data set [4] concerns Staphylococcus aureus. Put plainly: Antibacterial activity against methicillin-resistant Staphylococcus aureus ATCC 33591 infected in ICR mouse assessed as mouse survival at 2 mg/kg, iv administered at 1 and 5 hrs post infection and measured on day 7 day post last dose (reference value: 0%). The data set is classed as functional. As to conditions: ATCC 33591, iv.
Data set [5] concerns Stenotrophomonas maltophilia. Put plainly: Antibacterial activity against Stenotrophomonas maltophilia ATCC 13636 after 18 hrs by CLSI broth microdilution method. Particulars: ATCC 13636, 18 h. The format is functional.
Data set [6] relates to Staphylococcus aureus. Nature of the data set: Antibacterial activity against methicillin-resistant Staphylococcus aureus ATCC 33591 infected in ICR mouse assessed as mouse survival administered intravenously at 1 and 5 hrs post infection and measured on day 7 day post last dose (reference value: 0%). The format is functional. Particulars: ATCC 33591, iv.
Data set [7] can be described thus: Cytotoxicity against HEK293T cells assessed as reduction in cell viability after 48 hrs by MTS assay. The data set is classed as cell-based, HEK-293T. Particulars: human. In general terms: Tetrazolium assays rely on reduction of a dye to a coloured formazan, in cell work by metabolically active cells.
In another data set the test system is Enterococcus faecium. Nature of the data set: Antibacterial activity against vancomycin-sensitive Enterococcus faecium 12-3 after 18 hrs by CLSI broth microdilution method. The data set is classed as functional. As to conditions: 12-3, 18 h.
Data set [8] has as its system Klebsiella pneumoniae. Put plainly: Antibacterial activity against carbapenem-resistant Klebsiella pneumoniae 12-12 after 18 hrs by CLSI broth microdilution method. The format is functional. Particulars: 12-12, 18 h.
The test system of data set [9] is Escherichia coli. Put plainly: Antibacterial activity against extended-spectrum beta-lactamase deficient Escherichia coli 12-14 after 18 hrs by CLSI broth microdilution method. The format is functional. As to conditions: 12-14, 18 h.
For data set [10], the system named is Staphylococcus aureus. Put plainly: Antibacterial activity against methicillin-resistant Staphylococcus aureus ATCC 33591 infected in ICR mouse assessed as mouse survival at 4 mg/kg, iv administered at 1 and 5 hrs post infection and measured on day 7 day post last dose (reference value: 0%). The data set is classed as functional. As to conditions: ATCC 33591, iv.

The test system of data set [11] is Acinetobacter calcoaceticus. Put plainly: Antibacterial activity against new delhi metallo-beta-lactamase-1 harboring Acinetobacter calcoaceticus 13-1 after 18 hrs by CLSI broth microdilution method. As to conditions: 13-1, 18 h. The data set is classed as functional.

Converted amounts (≈) assume the structure as drawn.

For the compound `CN(C)C(=N)c1ccc2cc(-c3ccc(-c4cc5ccc(C(=N)N(C)C)cc5[nH]4)cc3)[nH]c2c1`, the survival at 3 mg/kg in the data set on Staphylococcus aureus [1] was determined as 60%. For the same compound, the MIC in the data set with Escherichia coli [2] was determined as 2 µg/mL (≈ 4.46 µM); with Enterobacter cloacae it was 1 µg/mL (≈ 2.23 µM); against Klebsiella pneumoniae [3] it was 8 µg/mL (≈ 17.8 µM); in data set [5], 8 µg/mL (≈ 17.8 µM); in the data set on Enterococcus faecium, 1 µg/mL (≈ 2.23 µM); against Klebsiella pneumoniae [8], 16 µg/mL (≈ 35.7 µM). Besides, the MIC is 1 µg/mL (≈ 2.23 µM) against Escherichia coli [9] and 4 µg/mL (≈ 8.92 µM) in data set [11]. The survival at 2 mg/kg in the data set on Staphylococcus aureus [4] was 20%. For the same compound, the 50% effective dose (ED50) with Staphylococcus aureus [6] worked out at 2.62 mg/kg. The ED95 with Staphylococcus aureus [6] was found to be 4.62 mg/kg. Further, in data set [7], the CC50 at 48 h turned out to be 4.13 µg/mL (≈ 9.21 µM). In addition, the survival at 4 mg/kg in the data set with Staphylococcus aureus [10] came to 90%.
